Test results as given in US20160297830A1, “NOVEL COMPOUNDS USEFUL FOR THE TREATMENT OF BACTERIAL INFECTIOUS DISEASES” (GALAPAGOS NV, priority 2013, published 2016).
≈ marks a conversion by molar mass, not a printed value. Read-outs that look alike come from different tables or passages of the source.

What was measured:
E. coli Ec1 ATCC 25922 = assay: Antibacterial activity assay (MIC), E. coli Ec1; type: cell-based; conditions: Escherichia coli
[1] = tested on: H. influenza Hi106 ATCC 51907; assay: organism not typed; type: cell-based; conditions: read-out: MIC Hi106
[2] = tested on: S. aureus Sa2 clinical strain NCIMB 41953, MRSA; assay: microbe, parasite or virus in culture; type: cell-based; conditions: Staphylococcus aureus, read-out: MIC Sa2
S. aureus Sa4 NCTC 6571 = assay: Antibacterial activity assay (MIC), S. aureus Sa4; type: cell-based; conditions: Staphylococcus aureus
[3] = tested on: S. aureus Sa26 ATCC 25923; assay: Antibacterial activity assay (MIC), S. aureus Sa26; type: cell-based; conditions: Staphylococcus aureus
[4] = tested on: E. coli Ec113 efflux pump KO; assay: microbe, parasite or virus in culture; type: cell-based; conditions: Escherichia coli, read-out: MIC Ec113 efflux pump KO
[5] = tested on: H. influenza Hi10 clinical strain; assay: organism not typed; type: cell-based; conditions: read-out: MIC Hi10
S. aureus Sa1 ATCC 13709 = assay: microbe, parasite or virus in culture; type: cell-based; conditions: Staphylococcus aureus
[6] = molecular target: DNA Polymerase IIIα (DnaE) from Staphylococcus aureus (Staphylococcus aureus, UniProt Q6GG04); assay: biochemical
DNA III Polymerase E = DNA III Polymerase E (Escherichia coli, UniProt P10443); assay: In vitro activity against DNA III Polymerase E, E. coli; type: biochemical
Experimental: A radioactive filterplate assay was used to assess inhibitory activity of compounds on DNA Polymerase IIIα. Five μL of a dilution series of compound, starting from 100 μM highest concentration, 1/5 dilution, was added to the wells of a 96 well plate. Recombinant enzyme was diluted to 0.47 μg/mL in a buffer containing 20 mM Tris pH7.5, 8 mM DTT, 10 mM MgOAc, 0.05% CHAPS and 10 μL thereof was added to the compound dilutions. The reaction was started with the addition of 10 μL substrate in the same buffer, containing activated calf thymus DNA (Sigma, D4522), dATP, dGTP, dCTP, dTTP (Invitrogen) and [α-33P]-dTTP (Perkin Elmer, NEG605H001) at a concentration of 62.5 μg/mL, 50 nM and 7.5 μCi/mL respectively. The mixture was incubated at 30° C. for 120 minutes and terminated by addition of phosphoric acid. Samples were transferred to filter plates and incorporated radioactivity was measured by the Topcount. Data were converted to percent inhibition with respect to positive and negative controls. IC50 values were calculated using Graph Prism™ software.

[7] = tested on: H. influenza Hi3 ATCC 31517; assay: organism not typed; type: cell-based; conditions: read-out: MIC Hi3
[8] = tested on: H. influenza Hi47 clinical strain, Ampicillin Resistant; assay: organism not typed; type: cell-based; conditions: read-out: MIC Hi47
[9] = tested on: E. coli Ec50 efflux pump KO; assay: microbe, parasite or virus in culture; type: cell-based; conditions: Escherichia coli, read-out: MIC Ec50 efflux pump KO
[10] = ATCC25922, E. coli Ec1 ATCC 25922, sensitive strain, read-out: MIC Ec1
[11] = NCTC6571, S. aureus Sa4 NCTC 6571, sensitive strain, read-out: MIC Sa4
[12] = ATCC25923, read-out: MIC Sa26 + 10% SH, S. aureus Sa26 + 10% SH
[13] = ATCC25923, read-out: MIC Sa26 + 50% SH, S. aureus Sa26 + 50% SH
[14] = ATCC25923, S. aureus Sa26 ATCC 25923, sensitive strain, Mueller-Hinton Broth, 37° C., read-out: MIC Sa26
[15] = ATCC13709, S. aureus Sa1 ATCC 13709, sensitive strain, Mueller-Hinton Broth, 37° C., read-out: MIC Sa1
[16] = DNA polymerase III, E. coli, read-out: IC50 semiquantitative scoring, E. coli

Chain of DNA Polymerase IIIα (DnaE) from Staphylococcus aureus (Q6GG04 1-1022): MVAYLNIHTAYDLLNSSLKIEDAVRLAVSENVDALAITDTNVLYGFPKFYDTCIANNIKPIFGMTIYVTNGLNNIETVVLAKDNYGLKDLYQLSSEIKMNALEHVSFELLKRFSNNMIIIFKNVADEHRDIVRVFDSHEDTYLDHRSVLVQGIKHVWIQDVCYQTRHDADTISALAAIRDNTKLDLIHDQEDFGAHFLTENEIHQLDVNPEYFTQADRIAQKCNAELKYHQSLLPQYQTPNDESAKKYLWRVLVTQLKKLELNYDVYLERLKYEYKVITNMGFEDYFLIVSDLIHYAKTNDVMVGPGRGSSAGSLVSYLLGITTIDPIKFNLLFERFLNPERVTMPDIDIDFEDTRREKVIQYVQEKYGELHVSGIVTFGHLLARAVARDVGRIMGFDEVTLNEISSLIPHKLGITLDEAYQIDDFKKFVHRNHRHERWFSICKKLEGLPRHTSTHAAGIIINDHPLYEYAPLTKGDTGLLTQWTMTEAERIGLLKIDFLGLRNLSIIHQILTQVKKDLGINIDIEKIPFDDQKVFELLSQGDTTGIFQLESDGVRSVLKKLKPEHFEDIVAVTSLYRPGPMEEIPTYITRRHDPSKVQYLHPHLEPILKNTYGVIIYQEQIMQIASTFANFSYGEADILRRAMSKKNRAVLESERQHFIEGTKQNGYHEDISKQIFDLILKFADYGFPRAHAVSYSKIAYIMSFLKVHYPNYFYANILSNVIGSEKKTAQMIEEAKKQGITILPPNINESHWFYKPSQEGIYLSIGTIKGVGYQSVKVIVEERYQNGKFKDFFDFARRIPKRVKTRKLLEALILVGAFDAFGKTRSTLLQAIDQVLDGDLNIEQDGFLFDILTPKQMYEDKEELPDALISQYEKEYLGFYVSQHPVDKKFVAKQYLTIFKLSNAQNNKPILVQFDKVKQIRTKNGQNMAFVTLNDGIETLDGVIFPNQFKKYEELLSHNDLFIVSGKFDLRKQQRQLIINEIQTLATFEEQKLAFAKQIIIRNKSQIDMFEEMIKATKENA
Chain of DNA III Polymerase E (P10443 whole entry): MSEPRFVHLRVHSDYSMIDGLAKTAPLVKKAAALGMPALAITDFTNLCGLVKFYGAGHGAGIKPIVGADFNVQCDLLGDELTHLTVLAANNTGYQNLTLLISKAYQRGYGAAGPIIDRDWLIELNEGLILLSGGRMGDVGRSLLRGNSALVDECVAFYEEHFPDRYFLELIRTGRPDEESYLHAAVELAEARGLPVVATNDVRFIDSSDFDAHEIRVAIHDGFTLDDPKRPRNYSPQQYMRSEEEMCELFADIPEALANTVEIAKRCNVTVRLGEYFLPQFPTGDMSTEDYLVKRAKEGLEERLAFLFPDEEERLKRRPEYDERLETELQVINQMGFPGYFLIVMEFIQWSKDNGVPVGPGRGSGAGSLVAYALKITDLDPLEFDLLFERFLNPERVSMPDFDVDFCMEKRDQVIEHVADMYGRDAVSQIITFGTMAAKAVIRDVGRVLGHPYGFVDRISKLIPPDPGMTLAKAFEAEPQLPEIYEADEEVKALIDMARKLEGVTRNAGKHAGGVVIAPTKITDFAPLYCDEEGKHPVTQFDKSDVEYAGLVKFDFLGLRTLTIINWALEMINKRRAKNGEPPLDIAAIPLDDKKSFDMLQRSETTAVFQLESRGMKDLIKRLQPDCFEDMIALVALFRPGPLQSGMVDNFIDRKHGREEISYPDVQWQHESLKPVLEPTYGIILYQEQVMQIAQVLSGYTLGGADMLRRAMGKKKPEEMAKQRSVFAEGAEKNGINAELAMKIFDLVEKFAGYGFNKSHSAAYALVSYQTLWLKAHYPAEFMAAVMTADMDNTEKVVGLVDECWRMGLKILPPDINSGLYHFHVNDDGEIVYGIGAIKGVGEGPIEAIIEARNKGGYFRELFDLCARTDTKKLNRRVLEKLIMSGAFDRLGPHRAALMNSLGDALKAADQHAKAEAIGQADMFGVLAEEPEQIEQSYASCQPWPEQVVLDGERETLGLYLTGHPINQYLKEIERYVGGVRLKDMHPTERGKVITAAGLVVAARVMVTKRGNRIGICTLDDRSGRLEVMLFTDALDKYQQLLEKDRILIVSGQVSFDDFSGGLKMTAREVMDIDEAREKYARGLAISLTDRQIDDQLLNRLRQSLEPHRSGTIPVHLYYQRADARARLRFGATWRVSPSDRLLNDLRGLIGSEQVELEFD

Row | Structure (SMILES) | MIC (E. coli Ec1 ATCC 25922; [10]) | MIC [1] | MIC [2] | MIC (S. aureus Sa4 NCTC 6571; [11]) | MIC [3, 12] | MIC [3, 13] | MIC [3, 14] | MIC [4] | MIC [5] | MIC (S. aureus Sa1 ATCC 13709; [15]) | IC50 [6] | IC50 (DNA III Polymerase E) | MIC [7] | MIC [8] | MIC [9] | IC50 (DNA III Polymerase E; [16]) | also measured
1 | COC[C@@H](O)[C@H]1OC(=O)[C@H](COC)[C@H]2C=C[C@H]3[C@H]4O[C@]2(/C(C)=C/[C@H]1C)[C@@H]3[C@H](O)[C@@H](C)[C@H]4O [Compound 1, Baleomycin] | > 64 µg/mL | 64 µg/mL (≈ 141 µM) | > 64 µg/mL | > 64 µg/mL | > 64 µg/mL | > 64 µg/mL | > 64 µg/mL | 0.5 µg/mL (≈ 1.1 µM) | > 64 µg/mL | > 64 µg/mL | 2210 to 22100 nM | 2210 to 22100 nM | > 64 µg/mL | 64 µg/mL (≈ 141 µM) | 2 µg/mL (≈ 4.42 µM) |  | 
2 | COC[C@@H](O)[C@H]1OC(=O)[C@H](COC)[C@H]2C=C[C@H]3[C@H]4O[C@]2(/C(C)=C/[C@H]1C)[C@@H]3[C@H](O)[C@@H](C)[C@H]4OC(=O)c1ccc[nH]1 [Compound 3, 8-O-1H-pyrrole-2′-carbonylbaleomycin] | > 64 µg/mL | 64 µg/mL (≈ 117 µM) | 0.5 µg/mL (≈ 0.916 µM) | 0.5 µg/mL (≈ 0.916 µM) | 1 µg/mL | 2 µg/mL | 1 µg/mL (≈ 1.83 µM) | 0.125 µg/mL (≈ 0.229 µM) | 64 µg/mL (≈ 117 µM) | 0.5 µg/mL (≈ 0.916 µM) | 1.83 to 1830 nM |  | > 64 µg/mL | > 64 µg/mL | 8 µg/mL (≈ 14.7 µM) | 1830 to 18300 nM | 
3 | COCC[C@H]1OC(=O)[C@H](COC)[C@H]2C=C[C@H]3[C@H]4O[C@]2(/C(C)=C/[C@H]1C)[C@@H]3[C@H](O)[C@@H](COC)[C@H]4OC(=O)c1ccc[nH]1 [Compound 4, 17-Deoxy-8-O-1H-pyrrole-2′-carbonylbranimycin] | > 64 µg/mL |  | 4 µg/mL (≈ 7.15 µM) | 2 µg/mL (≈ 3.57 µM) | 4 µg/mL | 8 µg/mL | 4 µg/mL (≈ 7.15 µM) | 4 µg/mL (≈ 7.15 µM) | > 64 µg/mL | 4 µg/mL (≈ 7.15 µM) | 1.79 to 1790 nM | > 17900 nM | > 64 µg/mL |  | > 64 µg/mL |  | 
4 | COC[C@@H]1[C@@H](O)[C@@H]2[C@H]3C=C[C@@H]4[C@@H](COC)C(=O)O[C@H]([C@H](O)COC)[C@H](C)/C=C(\C)[C@@]24O[C@H]3[C@@H]1OC(=O)c1ccoc1 [Compound 5, 8-O-Furane-3′-carbonylbranimycin] | > 64 µg/mL | > 64 µg/mL | 2 µg/mL (≈ 3.47 µM) | 2 µg/mL (≈ 3.47 µM) | 2 µg/mL | 4 µg/mL | 4 µg/mL (≈ 6.94 µM) |  | > 64 µg/mL | 2 µg/mL (≈ 3.47 µM) |  |  | > 64 µg/mL | > 64 µg/mL | > 64 µg/mL | > 17300 nM | IC50 ([6]; DNA polymerase III, S. aureus, read-out: IC50 semiquantitative scoring, S. aureus): 1.73 to 1730 nM
5 | COC[C@@H]1[C@@H](O)[C@@H]2[C@H]3C=C[C@@H]4[C@@H](COC)C(=O)O[C@H]([C@H](O)COC)[C@H](C)/C=C(\C)[C@@]24O[C@H]3[C@@H]1OC(=O)c1ccc(C)[nH]1 [Compound 6, 8-O-5-Methyl-1H-pyrrole-2′-carbonylbranimycin] |  | > 64 µg/mL | 64 µg/mL (≈ 109 µM) |  |  |  |  | 8 µg/mL (≈ 13.6 µM) | > 64 µg/mL |  | 1.7 to 1700 nM |  | > 64 µg/mL | > 64 µg/mL |  | > 17000 nM | MIC (E. coli Ec1 ATCC 25922; ATCC25922, read-out: MIC Ec1): > 64 µg/mL; MIC (S. aureus Sa4 NCTC 6571; NCTC6571, read-out: MIC Sa4): > 64 µg/mL; MIC ([3]; ATCC25923, read-out: MIC Sa26): > 64 µg/mL; MIC ([3]; ATCC25923, read-out: MIC Sa26 + 10% SH): > 64 µg/mL; MIC ([3]; ATCC25923, read-out: MIC Sa26 + 50% SH): > 64 µg/mL; MIC (S. aureus Sa1 ATCC 13709; ATCC13709, read-out: MIC Sa1): > 64 µg/mL
